Legend:
[1] = test system: IGROV-1; assay: Growth inhibition of human IGROV1 cells assessed as cell growth at 10 uM after 48 hrs by sulforhodamine B assay; type: functional; conditions: IGROV-1, 48 h, read-out: Activity
[2] = test system: MDA-MB-231; assay: Growth inhibition of human MDA-MB-231 cells assessed as cell growth at 10 uM after 48 hrs by sulforhodamine B assay; type: functional; conditions: MDA-MB-231, 48 h, read-out: Activity
[3] = test system: HOP-92; assay: Growth inhibition of human HOP92 cells after 48 hrs by sulforhodamine B assay; type: functional, cell-based; conditions: HOP-92, 48 h
[4] = Growth inhibition of human HCC2998 cells assessed as cell growth at 10 uM after 48 hrs by sulforhodamine B assay; type: functional; conditions: HCC 2998, 48 h, read-out: Activity
[5] = test system: K562; assay: Growth inhibition of human K562 cells after 48 hrs by sulforhodamine B assay; type: functional; conditions: K562, 48 h
[6] = test system: RXF 393; assay: Growth inhibition of human RXF393 cells assessed as cell growth at 10 uM after 48 hrs by sulforhodamine B assay; type: functional; conditions: RXF 393, 48 h, read-out: Activity
[7] = test system: NCI-H322M; assay: Growth inhibition of human NCI-H322M cells after 48 hrs by sulforhodamine B assay; type: functional
[8] = test system: Malme-3M; assay: Growth inhibition of human MALME-3M cells assessed as cell growth at 10 uM after 48 hrs by sulforhodamine B assay; type: functional; conditions: read-out: Activity
[9] = test system: A549; assay: Growth inhibition of human A549/ATCC cells assessed as cell growth at 10 uM after 48 hrs by sulforhodamine B assay; type: functional; conditions: A549, 48 h, read-out: Activity
[10] = test system: SK-MEL-2; assay: Growth inhibition of human SK-MEL-2 cells assessed as cell growth at 10 uM after 48 hrs by sulforhodamine B assay; type: functional; conditions: SK-MEL-2, 48 h, read-out: Activity
[11] = test system: CCRF-CEM; assay: Growth inhibition of human CCRF-CEM cells assessed as cell growth at 10 uM after 48 hrs by sulforhodamine B assay; type: functional; conditions: read-out: Activity
[12] = test system: OVCAR-3; assay: Growth inhibition of human OVCAR3 cells after 48 hrs by sulforhodamine B assay; type: functional, cell-based; conditions: OVCAR-3, 48 h
[13] = test system: MCF7; assay: Growth inhibition of human MCF7 cells after 48 hrs by sulforhodamine B assay; type: functional; conditions: MCF7, 48 h
[14] = test system: HL-60(TB); assay: Growth inhibition of human HL-60(TB) cells after 48 hrs by sulforhodamine B assay; type: functional; conditions: HL-60, 48 h
[15] = test system: SNB-19; assay: Growth inhibition of human SNB19 cells assessed as cell growth at 10 uM after 48 hrs by sulforhodamine B assay; type: functional; conditions: SNB-19, 48 h, read-out: Activity
[16] = test system: A549; assay: Growth inhibition of human A549/ATCC cells after 48 hrs by sulforhodamine B assay; type: functional; conditions: A549, 48 h
[17] = test system: SN12C; assay: Growth inhibition of human SN12C cells after 48 hrs by sulforhodamine B assay; type: functional
[18] = test system: LOX IMVI; assay: Growth inhibition of human LOXIMVI cells after 48 hrs by sulforhodamine B assay; type: functional
[19] = Growth inhibition of human Hs 578T cells after 48 hrs by sulforhodamine B assay; type: functional
[20] = test system: SK-MEL-2; assay: Growth inhibition of human SK-MEL-2 cells after 48 hrs by sulforhodamine B assay; type: functional; conditions: SK-MEL-2, 48 h
[21] = test system: RPMI-8226; assay: Growth inhibition of human RPMI8226 cells after 48 hrs by sulforhodamine B assay; type: functional, cell-based; conditions: RPMI-8226, 48 h
[22] = test system: MDA-MB-468; assay: Growth inhibition of human MDA-MB-468 cells assessed as cell growth at 10 uM after 48 hrs by sulforhodamine B assay; type: functional; conditions: MDA-MB-468, 48 h, read-out: Activity
[23] = test system: K562; assay: Growth inhibition of human K562 cells assessed as cell growth at 10 uM after 48 hrs by sulforhodamine B assay; type: functional; conditions: K562, 48 h, read-out: Activity
[24] = test system: HCT-15; assay: Growth inhibition of human HCT15 cells assessed as cell growth at 10 uM after 48 hrs by sulforhodamine B assay; type: functional; conditions: HCT-15, 48 h, read-out: Activity
[25] = test system: SNB-75; assay: Growth inhibition of human SNB75 cells after 48 hrs by sulforhodamine B assay; type: functional; conditions: SNB-75, 48 h
[26] = test system: T47D; assay: Growth inhibition of human T47D cells after 48 hrs by sulforhodamine B assay; type: functional
[27] = test system: KM12; assay: Growth inhibition of human KM12 cells after 48 hrs by sulforhodamine B assay; type: functional, cell-based; conditions: KM12, 48 h
[28] = test system: TK-10; assay: Growth inhibition of human TK10 cells after 48 hrs by sulforhodamine B assay; type: functional; conditions: TK-10, 48 h
[29] = test system: NCI-H226; assay: Growth inhibition of human NCI-H226 cells after 48 hrs by sulforhodamine B assay; type: functional; conditions: NCI-H226, 48 h
[30] = test system: HOP-92; assay: Growth inhibition of human HOP92 cells assessed as cell growth at 10 uM after 48 hrs by sulforhodamine B assay; type: functional; conditions: HOP-92, 48 h, read-out: Activity
[31] = test system: MDA-MB-468; assay: Growth inhibition of human MDA-MB-468 cells after 48 hrs by sulforhodamine B assay; type: functional, cell-based; conditions: MDA-MB-468, 48 h
[32] = test system: NCI-H460; assay: Growth inhibition of human NCI-H460 cells assessed as cell growth at 10 uM after 48 hrs by sulforhodamine B assay; type: functional; conditions: NCI-H460, 48 h, read-out: Activity
[33] = test system: DU-145; assay: Growth inhibition of human DU145 cells after 48 hrs by sulforhodamine B assay; type: functional; conditions: DU-145, 48 h
[34] = test system: TK-10; assay: Growth inhibition of human TK10 cells assessed as cell growth at 10 uM after 48 hrs by sulforhodamine B assay; type: functional; conditions: TK-10, 48 h, read-out: Activity
[35] = read-out: LC50 (the source's name)

With `COc1cc(-c2nn(-c3cccc(NC(=O)Nc4cccc(C(F)(F)F)c4)c3)cc2-c2ccncc2)ccc1Cl` the growth at 10 µM [1] was 14%, the growth at 10 µM [2] was -28.8% and the GI50 [3] was 557 nM. For the same molecule, the IC50 [3] was 560 nM, the LC50 [3] was greater than 50000 nM and the TGI [3] was 1770 nM. It also gave a growth at 10 µM [4] of -18.4%, a GI50 [5] of 584 nM and a TGI [5] greater than 50000 nM. It also gave a CC50 [5, 35] greater than 50000 nM, a growth at 10 µM [6] of -69.8% and a GI50 [7] of 1210 nM. For the same molecule, the TGI [7] was 4730 nM, the CC50 [7, 35] was greater than 50000 nM and the growth at 10 µM [8] was -32.1%. For the same molecule, the growth at 10 µM [9] was -14%, the growth at 10 µM [10] was -71.2% and the growth at 10 µM [11] was -9.68%. It also gave a GI50 [12] of 579 nM, an IC50 [12] of 580 nM and a TGI [12] of 1870 nM. It also gave a CC50 [12, 35] of 24700 nM, a GI50 [13] of 751 nM and an LC50 [13] greater than 50000 nM. The TGI [13] was 7720 nM, the GI50 [14] was 1370 nM and the TGI [14] was greater than 50000 nM. For the same molecule, the CC50 [14, 35] was greater than 50000 nM, the growth at 10 µM [15] was 23.5% and the GI50 [16] was 794 nM. For the same molecule, the LC50 (concentration killing 50% of starting cells) [16] was greater than 50000 nM, the TGI [16] was greater than 50000 nM and the GI50 [17] was 1400 nM. It also gave a TGI [17] of 21900 nM, a CC50 [17, 35] greater than 50000 nM and a GI50 [18] of 789 nM. For the same molecule, the LC50 [18] was 3460 nM, the TGI [18] was 1650 nM and the GI50 [19] was 1230 nM. It also gave a TGI [19] of 12500 nM, a CC50 [19, 35] greater than 50000 nM and a GI50 [20] of 970 nM. The LC50 (50% lethal concentration) [20] was 3960 nM, the TGI [20] was 1960 nM and the GI50 [21] was 340 nM. The IC50 [21] was 340 nM, the TGI [21] was 3120 nM and the CC50 [21, 35] was greater than 50000 nM. For the same molecule, the growth at 10 µM [22] was -27.6%, the growth at 10 µM [23] was 1.6% and the growth at 10 µM [24] was 5.28%. The GI50 [25] was 1160 nM, the LC50 (lethal concentration, 50% net cell kill) [25] was 50000 nM and the TGI [25] was 4500 nM. For the same molecule, the GI50 [26] was 1650 nM, the TGI [26] was greater than 50000 nM and the CC50 [26, 35] was 50000 nM. The GI50 [27] was 573 nM, the IC50 [27] was 570 nM and the TGI [27] was 1980 nM. The CC50 [27, 35] was greater than 50000 nM, the GI50 [28] was 1310 nM and the TGI [28] was 19000 nM. The CC50 [28, 35] was greater than 50000 nM, the GI50 [29] was 1380 nM and the TGI [29] was greater than 50000 nM. The CC50 [29, 35] was greater than 50000 nM, the growth at 10 µM [30] was -33.6% and the GI50 [31] was 598 nM. It also gave an IC50 [31] of 600 nM, a TGI [31] of 2160 nM and a CC50 [31, 35] of 50000 nM. It also gave a growth at 10 µM [32] of -7.91%, a GI50 [33] of 1670 nM and an LC50 [33] greater than 50000 nM. The TGI [33] was greater than 50000 nM and the growth at 10 µM [34] was 2.65%.
